Laboratory results taken from US9067974B2, “Polymyxin derivatives and uses thereof” (priority 2006, dated 2015).

How the values were obtained:
[1] = system: E. coli IH3080; test: Sensitization to rifampin: well diffusion growth inhibition on LB plates containing rifampin; type: cell-based, Escherichia coli; conditions: 4 μg of compound
Protocol: (§1) From an overnight-grown culture of IH3080 on LB agar, a suspension of approx. 10^8 cells/ml was prepared in 0.9% NaCl. Aliquots of this suspension were then pipetted on the agar plates and the plates were gently shaken to spread the suspension evenly on the entire surface of the plate. Thereafter, the unabsorbed part of the suspension was removed by using a Pasteur pipette. After the surface had dried, small wells (diameter, 2 mm) were drilled on the plates (five wells per plate) by using a sterile sharp-edged narrow metal tube, single-use pipette tip, and vacuum suction. […] Controls included 0.9% NaCl solution without the compound to be tested. The plates were then incubated for 18 h at 37° C. whereafter the diameters of growth inhibition zones around each well were measured; the diameter of the well itself was not reduced. Finally, the diameters were converted to surface areas of growth inhibition (in square mm).

[2] = system: Acinetobacter baumannii ATCC 19606; test: Well diffusion growth inhibition on LB agar plates (direct antibacterial activity); type: cell-based; conditions: A. baumannii ATCC 19606
Protocol: (§2) From an overnight-grown culture of IH3080 on LB agar, a suspension of approx. 10^8 cells/ml was prepared in 0.9% NaCl. Aliquots of this suspension were then pipetted on the agar plates and the plates were gently shaken to spread the suspension evenly on the entire surface of the plate. Thereafter, the unabsorbed part of the suspension was removed by using a Pasteur pipette. After the surface had dried, small wells (diameter, 2 mm) were drilled on the plates (five wells per plate) by using a sterile sharp-edged narrow metal tube, single-use pipette tip, and vacuum suction. Samples (4 μl and 10 μl) of the peptide solution in 0.9% NaCl (at concentrations of 1 μg/ml and 0.1 μg/ml) were then pipetted to the wells and the sample fluids were allowed to absorb. Controls included 0.9% NaCl solution without the compound to be tested. The plates were then incubated for 18 h at 37° C. whereafter the diameters of growth inhibition zones around each well were measured; the diameter of the well itself was not reduced. Finally, the diameters were converted to surface areas of growth inhibition (in square mm).
(§3) Direct antibacterial activity of twelve NAB compounds against Acinetobacter baumannii ATCC 19606 and Pseudomonas aeruginosa ATCC 27853 was tested by using the susceptibility determination method described in Example 2. Five compounds (NAB7062, NAB734, NAB737, NAB739, and NAB740) had notable activity against A. baumannii. […] The antibacterial activity of NAB739 and NAB740 were as strong as or even stronger than that of polymyxin B.

[3] = system: Pseudomonas aeruginosa ATCC 27853; test: as above; type: cell-based; conditions: Ps. aeruginosa ATCC 27853
Protocol: as §2, §3

[4] = system: E. coli IH3080 (K1:O18); test: as above; type: cell-based, Escherichia coli
Protocol: Peptides synthesized in Example 1, all carrying at least two (2) but not more than three (3) positive charges, were studied for their ability to inhibit the growth of E. coli. This was tested employing LB agar (LB Agar Lennox, Difco, BD, Sparks, Md., U.S.A) plates. The indicator organism E. coli IH3080 (K1:O18) was an encapsulated strain originally isolated from a neonate suffering from meningitis (Vaara et al. 1984) and obtained from National Public Health Institute, Helsinki, Finland.
as §1

[5] = system: Ps. aeruginosa ATCC 27853; test: Sensitization to rifampin: well diffusion growth inhibition on LB plates containing rifampin; type: cell-based, Pseudomonas aeruginosa; conditions: 4 μg of compound
[6] = system: A. baumannii ATCC 19606; test: as above; type: cell-based, Acinetobacter baumannii; conditions: 4 μg of compound

Substance | Antibacterial activity in the presence of rifampin (growth inhibition area around a well) ([1]; rifampin 0 μg/ml) [square millimeters] | Antibacterial activity in the presence of rifampin (growth inhibition area around a well) ([1]; rifampin 0.1 μg/ml) [square millimeters] | Antibacterial activity in the presence of rifampin (growth inhibition area around a well) ([1]; rifampin 1.0 μg/ml) [square millimeters] | Antibacterial activity (growth inhibition area around a well) ([2]; 4 μg per well) [square millimeters] | Antibacterial activity (growth inhibition area around a well) ([2]; 10 μg per well) [square millimeters] | Antibacterial activity (growth inhibition area around a well) ([3]; 4 μg per well) [square millimeters] | Antibacterial activity (growth inhibition area around a well) ([3]; 10 μg per well) [square millimeters] | Antibacterial activity (growth inhibition area around a well) ([4]; 4 μg of compound per well) [square millimeters] | Antibacterial activity (growth inhibition area around a well) ([4]; 10 μg of compound per well) [square millimeters] | Antibacterial activity in the presence of rifampin (growth inhibition area around a well) ([5]; rifampin 0 μg/ml) [square millimeters] | Antibacterial activity in the presence of rifampin (growth inhibition area around a well) ([5]; rifampin 0.1 μg/ml) [square millimeters] | Antibacterial activity in the presence of rifampin (growth inhibition area around a well) ([5]; rifampin 0.3 μg/ml) [square millimeters] | Antibacterial activity in the presence of rifampin (growth inhibition area around a well) ([6]; rifampin 0 μg/ml) [square millimeters] | Antibacterial activity in the presence of rifampin (growth inhibition area around a well) ([6]; rifampin 0.1 μg/ml) [square millimeters] | Antibacterial activity in the presence of rifampin (growth inhibition area around a well) ([6]; rifampin 0.3 μg/ml) [square millimeters]
OA-Thr-Abu-cy[Dab-Dab-DPhe-Leu-Dab-Dab-Leu-] [NAB 719] | 7 | 79 | 95 | 0 | 0 | 0 | 0 | 7 | 50 | 0 | 0 | 7 | 0 | 154 | 133
DA-Thr-Abu-cy[Dab-Dab-DPhe-Leu-Dab-Dab-Thr-] [NAB 7062] | 50 | 104 | 104 | 13 | 38 | 0 | 0 | 50 | 99 | 0 | 0 | 7 | 13 | 50 | 95
OA-Thr-Abu-cy[Dab-Dab-DLeu-Leu-Dab-Dab-Thr-] [NAB 718] | 0 | 13 | 133 | 0 | 0 | 0 | 0 | 0 | 0 | 0 | 0 | 0 | 0 | 0 | 38
OA-Thr-Dab-cy[Dab-Dab-DPhe-Leu-Dab-Abu-Thr-] [NAB 717] | 0 | 71 | 95 | 0 | 0 | 0 | 0 | 0 | 0 | 0 | 0 | 0 | 0 | 0 | 50
OA-Thr-DAla-cy[Dab-Dab-DPhe-Thr-Dab-Dab-Thr-] [NAB 738] | 0 | 133 | 177 | 0 | 0 | 0 | 0 | 0 | 64 | 0 | 13 | 13 | 0 | 95 | 154
OA-Thr-DThr-cy[Dab-Dab-DPhe-Thr-Dab-Dab-Thr-] [NAB 737] | 133 | 177 | 201 | 38 | 79 | 0 | 28 | 133 | 201 | 0 | 20 | 20 | 38 | 201 | 283
